# Measurements reported in patent US6011008A, “Conjugates of biologically active substances” (priority 1998, dated 2000).
# Tests used:
# [1] = In vitro release (dialysis tubing method); assay type: physicochemical; conditions: for drug released from the dialysis tube: after 5 hours, buffer pH 7.4, 37° C.; for release of the conjugated drug: after 24 hours, buffer pH 7.4 at 37° C.
# Protocol: A solution of the Schiff base or the amine conjugates (100 mg in 5 ml phosphate buffer pH7.4) was placed into a cellulose dialysis tubing of 12,000 MW cut off and the bag was placed into a 100 ml. buffer solution at 37° C. The drug release to the solution was monitored by UV absorption at 280 nm, unless otherwise indicated.
# The release of DOX from the AG conjugates was determined using dialysis tubing as described above. The DOX-AG imine conjugate, the DOX-AG amine conjugate and a solution of the native drug were studied. The amount of DOX found in the solution was 2, 5, 8, 10 and 12% of the total dose after 2, 4, 7, 12 and 32 hours, respectively.
# The Mitomycin release into the solution was measured as described above. The amount of drug found in the solution was 1, 2, 4, 5 and 8% of the total dose after 2, 4, 7, 12 and 32 hours, respectively.
# In vitro release of Somatostatin was determined as described in the Methods and the somatostatin concentration was determined by the Folin-Lowry method for peptide analysis^(10).
# Insulin was conjugated to oxidized AG (50 mg with 100 mg pure oxidized AG) using the method described above for somatostatin. The conjugation yield was about 75% as determined by nitrogen analysis and the Folin-Lowry method. The Schiff base derivative released about 25% of its drug content after 24 hours in phosphate buffer solution at […].
# Escherichia coli = Escherichia coli agar plates, after 24 hours of incubation
# Protocol: The antimicrobial activity of the conjugates was assayed by a cup method^(9) (agar plate method) using Escherichia coli agar plates and measuring the zone of growth inhibition.
# E. Coli = assay: Antimicrobial activity, filter paper on seeded agar plate; assay type: cell-based; conditions: 24 hours at 37° C., 6 mm filter paper, equivalent amounts of the drug
# Protocol: (§1) The antimicrobial activity of these conjugates was determined as described above. Saline solutions of equivalent amounts of the drug in free form or the imine or amine AG conjugates were absorbed onto a circular filter paper (6 mm in diameter) and placed on a seeded agar plate with Staphylococcus Aureus (10^5 /ml) and E. Coli incubated for 24 hours at 37° C. […] Similar results were obtained for the Polymyxin derivatives.
# Staphylococcus Aureus = assay: as above; assay type: cell-based; conditions: Staphylococcus Aureus (10^5 /ml), 24 hours at 37° C., 6 mm filter paper, equivalent amounts of the drug
# Protocol: as §1
compound,measurement,setting,value
"COc1cccc2c1C(=O)c1c(O)c3c(c(O)c1C2=O)C[C@@](O)(C(=O)CO)C[C@@H]3O[C@H]1C[C@H](N)[C@H](O)[C@H](C)O1 [DOX, Doxorubicin]",drug released from the dialysis tube,[1],90%
CO[C@@]12[C@H](COC(N)=O)C3=C(C(=O)C(C)=C(N)C3=O)N1C[C@@H]1N[C@@H]12 [Mitomycin C],inhibition zone,Escherichia coli,> 10 mm
NC[C@H]1O[C@H](O[C@H]2[C@H](O)[C@@H](O[C@H]3O[C@H](CO)[C@@H](O)[C@H](N)[C@H]3O)[C@H](N)C[C@@H]2N)[C@H](N)C[C@@H]1O [tobramicin],inhibition zone,E. Coli,> 10 mm
same,inhibition zone,Staphylococcus Aureus,> 10 mm
"Insulin-AG Schiff base derivative: Insulin conjugated to pure oxidized AG, Schiff base",release of drug content,[1]; after 24 hours in phosphate buffer solution at […].,about 25%
Somatostatin-AG amine conjugate: Somatostatin-AG Schiff base hydrogenated to the amine conjugate using NaBH4,release of the conjugated drug,[1],did not release any
Somatostatin-AG imine conjugate: Somatostatin conjugated to pure oxidized AG via imine bond,drug released from the dialysis tube,[1],about 5%
same,release of the conjugated drug,[1],~18%
gentamicin,inhibition zone,E. Coli,> 10 mm
same,inhibition zone,Staphylococcus Aureus,> 10 mm
